Measurements: patent US10189854B2, “Substituted pyrimidine compounds” (Grünenthal GmbH, priority 2014, dated 2019)

Target: human PDE4B1 (Homo sapiens (Human), UniProt Q07343)
Assay: cAMP HTRF assay to determine the activity of hPDE4B1
Type: biochemical
Settings: IC50 inhibition of PDE4B; human recombinant PDE4B1, cAMP HTRF assay
Procedure, shortened: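 Recombinant human PDE4B1 expressed in Sf9 cells (4.8 U) was incubated with 40 nM cAMP for 30 min at room temperature in Tris buffer, pH 7.8, with MgCl2, DTT and Tween 20. HTRF detection of remaining cAMP followed, with 1 mM IBMX stop, read 60 min later as the 665/620 nm ratio. Results are % inhibition versus control.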

Chain of human PDE4B1 (Q07343 whole entry): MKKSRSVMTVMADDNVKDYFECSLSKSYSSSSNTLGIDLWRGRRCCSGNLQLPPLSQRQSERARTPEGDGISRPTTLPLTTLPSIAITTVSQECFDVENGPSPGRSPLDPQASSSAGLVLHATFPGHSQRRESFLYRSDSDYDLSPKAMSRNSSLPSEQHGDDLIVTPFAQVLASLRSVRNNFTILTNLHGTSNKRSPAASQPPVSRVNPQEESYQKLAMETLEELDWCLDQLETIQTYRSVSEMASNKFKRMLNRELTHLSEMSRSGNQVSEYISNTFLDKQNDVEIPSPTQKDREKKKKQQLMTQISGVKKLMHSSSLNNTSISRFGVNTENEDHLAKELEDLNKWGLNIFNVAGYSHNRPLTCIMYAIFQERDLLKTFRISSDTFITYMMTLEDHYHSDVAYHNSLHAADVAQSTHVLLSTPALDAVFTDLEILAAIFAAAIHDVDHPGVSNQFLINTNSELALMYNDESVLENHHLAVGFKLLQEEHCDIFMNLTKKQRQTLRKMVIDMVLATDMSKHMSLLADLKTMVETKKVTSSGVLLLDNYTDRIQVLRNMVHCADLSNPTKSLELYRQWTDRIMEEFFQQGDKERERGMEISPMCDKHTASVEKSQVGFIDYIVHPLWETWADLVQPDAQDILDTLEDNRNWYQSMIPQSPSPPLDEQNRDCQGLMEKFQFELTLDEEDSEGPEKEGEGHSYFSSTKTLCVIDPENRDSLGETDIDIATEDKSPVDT

Molecule	IC50
CC1(C)CN(c2ncc(-c3ccccc3F)cn2)c2cc(C(=O)N3CCOCC3)ccc21 [Compound 9, [1-[5-(2-Fluorophenyl)-pyrimidin-2-yl]-3,3-dimethyl-1,2-dihydro-indol-6-yl]-morpholin-4-yl-methanone]	0.1 to 1 µM
CN(CCN)C(=O)c1ccc2c(c1)N(c1ncc(-c3ccccc3F)cn1)CC21CC1 [Compound 41, N-(2-Amino-ethyl)-1-[5-(2-fluorophenyl)-pyrimidin-2-yl]-N-methyl-spiro[1,2-dihydro-indole-3,1′-cyclopropane]-6-carboxylic acid amide]	< 0.1 µM
O=C(c1ccc2c(c1)N(c1ncc(-c3cc(F)cnc3F)cn1)CC21CC1)N1CCOCC1 [Compound 163, [1-[5-(2,5-Difluoro-pyridin-3-yl)-pyrimidin-2-yl]-spiro[1,2-dihydro-indole-3,1′-cyclopropane]-6-yl]-morpholin-4-yl-methanone]	< 0.1 µM
O=C(c1ccc2c(c1)N(c1ncc(-c3ccsc3Cl)cn1)CC21CC1)N1CCOCC1 [Compound 132, [1-[5-(2-Chloro-thiophen-3-yl)-pyrimidin-2-yl]-spiro[1,2-dihydro-indole-3,1′-cyclopropane]-6-yl]-morpholin-4-yl-methanone]	< 0.1 µM
O=C(c1ccc2c(c1)N(c1ncc(-c3ccccc3F)cn1)CC21CC1)N1CCN(CCO)CC1 [Compound 34, [1-[5-(2-Fluorophenyl)-pyrimidin-2-yl]-spiro[1,2-dihydro-indole-3,1′-cyclopropane]-6-yl]-[4-(2-hydroxy-ethyl)-piperazin-1-yl]-methanone]	< 0.1 µM
[1-[5-(6-Methyl-pyridin-2-yl)-pyrimidin-2-yl]-spiro[1,2-dihydro-indole-3,1′-cyclopropane]-6-yl]-morpholin-4-yl-methanone [Compound 186]	< 0.1 µM
O=C(c1ccc2c(c1)N(c1ncc(-c3ccncc3)cn1)CC21CC1)N1CCOCC1 [Compound 146, Morpholin-4-yl-[1-(5-pyridin-4-yl-pyrimidin-2-yl)-spiro[1,2-dihydro-indole-3,1′-cyclopropane]-6-yl]-methanone]	< 0.1 µM
NC(=O)c1ccc(-c2cnc(N3CC4(CC4)c4ccc(C(=O)N5CCOCC5)cc43)nc2)o1 [Compound 156, 5-[2-[6-(Morpholine-4-carbonyl)-spiro[1,2-dihydro-indole-3,1′-cyclopropane]-1-yl]-pyrimidin-5-yl]-furan-2-carboxylic acid amide]	< 0.1 µM
O=C(c1ccc2c(c1)N(c1ncc(-c3ccccc3F)cn1)CC21CC1)N1CC2CC1CN2CCO (centres unmarked) [Compound 218, [1-[5-(2-Fluorophenyl)-pyrimidin-2-yl]-spiro[1,2-dihydro-indole-3,1′-cyclopropane]-6-yl]-[5-(2-hydroxy-ethyl)-2,5-diazabicyclo[2.2.1]heptan-2-yl]-methanone]	0.1 to 1 µM
O=C(c1ccc2c(c1)N(c1ncc(-c3ccccc3C(F)F)cn1)CC21CC1)N1CCOCC1 [Compound 39, [1-[5-[2-(Difluoro-methyl)-phenyl]-pyrimidin-2-yl]spiro[1,2-dihydro-indole-3,1′-cyclopropane]-6-yl]-morpholin-4-yl-methanone]	0.1 to 1 µM
CN(CCO)C(=O)c1ccc2c(c1)N(c1ncc(-c3cnn(C)c3)cn1)CC21CC1 [Compound 199, N-(2-Hydorxy-ethyl)-N-methyl-1-[5-(1-methyl-1H-pyrazol-4-yl)-pyrimidin-2-yl]-spiro[1,2-dihydro-indole-3,1′-cyclopropane]-6-carboxylic acid amide]	< 0.1 µM
NC(=O)c1cccc(-c2cnc(N3CC4(CC4)c4ccc(C(=O)N5CC[C@@H](N)C5)cc43)nc2)c1 [Compound 118, 3-[2-[6-[(3R)-3-Amino-pyrrolidine-1-carbonyl]-spiro[1,2-dihydro-indole-3,1′-cyclopropane]-1-yl]-pyrimidin-5-yl]-benzamide]	< 0.1 µM
NC(=O)c1ccc(F)c(-c2cnc(N3CC4(CC4)c4ccc(C(=O)N5CCNCC5)cc43)nc2)c1 [Compound 116, 4-Fluoro-3-[2-[6-(piperazine-1-carbonyl)-spiro[1,2-dihydro-indole-3,1′-cyclopropane]-1-yl]-pyrimidin-5-yl]-benzamide]	< 0.1 µM
O=C(c1ccc2c(c1)N(c1ncc(-c3ccccc3F)cn1)CC21CC1)N1CC[C@@H](O)C1 [Compound 44, [1-[5-(2-Fluorophenyl)-pyrimidin-2-yl]-spiro[1,2-dihydro-indole-3,1′-cyclopropane]-6-yl]-[(3R)-3-hydroxy-pyrrolidin-1-yl]-methanone]	< 0.1 µM
CS(=O)(=O)c1ccc(F)c(-c2cnc(N3CC4(CC4)c4ccc(C(=O)N5CCOCC5)cc43)nc2)c1 [Compound 42, [1-[5-(2-Fluoro-5-methylsulfonyl-phenyl)-pyrimidin-2-yl]-spiro[1,2-dihydro-indole-3,1′-cyclopropane]-6-yl]-morpholin-4-yl-methanone]	< 0.1 µM
O=C(c1ccc2c(c1)N(c1ncc(-c3ccc(Cl)s3)cn1)CC21CC1)N1CCOCC1 [Compound 131, [1-[5-(5-Chloro-thiophen-2-yl)-pyrimidin-2-yl]-spiro[1,2-dihydro-indole-3,1′-cyclopropane]-6-yl]-morpholin-4-yl-methanone]	0.1 to 1 µM

Molecule	IC50
O=C(c1ccc2c(c1)N(c1ncc(-c3ccccc3F)cn1)CC21CC1)N1CCNCC1 [Compound 5, [1-[5-(2-Fluorophenyl)-pyrimidin-2-yl]-spiro[1,2-dihydro-indole-3,1′-cyclopropane]-6-yl]-piperazin-1-yl-methanone]	< 0.1 µM
Cc1nc(C)c(-c2cnc(N3CC4(CC4)c4ccc(C(=O)N5CCOCC5)cc43)nc2)s1 [Compound 154, [1-[5-(2,4-Dimethyl-thiazol-5-yl)-pyrimidin-2-yl]-spiro[1,2-dihydro-indole-3,1′-cyclopropane]-6-yl]-morpholin-4-yl-methanone]	< 0.1 µM
CC(=O)Nc1ccc(-c2cnc(N3CC4(CC4)c4ccc(C(=O)N5CCOCC5)cc43)nc2)s1 [Compound 158, N-[5-[2-[6-(Morpholine-4-carbonyl)-spiro[1,2-dihydro-indole-3,1′-cyclopropane]-1-yl]-pyrimidin-5-yl]-thiophen-2-yl]-acetamide]	< 0.1 µM
O=C(c1ccc2c(c1)N(c1ncc(-c3ccccc3F)cn1)CC21CC1)N1CCCC2(COC2)C1 [Compound 79, [1-[5-(2-Fluorophenyl)-pyrimidin-2-yl]-spiro[1,2-dihydro-indole-3,1′-cyclopropane]-6-yl]-(2-oxa-8-azaspiro[3.5]nonan-8-yl)-methanone]	1 to 10 µM
1-[5-(3-Cyano-phenyl)-pyrimidin-2-yl]-N-(2-hydroxy-ethyl)-N-methyl-spiro[1,2-dihydro-indole-3,1′-cyclo-propane]-6-carboxylic acid amide [Compound 193]	< 0.1 µM
O=C(c1ccc2c(c1)N(c1ncc(-c3ccccc3Cl)cn1)CC21CC1)N1CCOCC1 [Compound 6, [1-[5-(2-Chlorophenyl)-pyrimidin-2-yl]-spiro[1,2-dihydro-indole-3,1′-cyclopropane]-6-yl]-morpholin-4-yl-methanone]	0.1 to 1 µM
O=C(c1ccc2c(c1)N(c1ncc(-c3ccc(F)cc3)cn1)CC21CC1)N1CCOCC1 [Compound 43, [1-[5-(4-Fluorophenyl)-pyrimidin-2-yl]-spiro[1,2-dihydro-indole-3,1′-cyclopropane]-6-yl]-morpholin-4-yl-methanone]	< 0.1 µM
O=C(c1ccc2c(c1)N(c1ncc(-c3cccc(F)c3F)cn1)CC21CC1)N1CCOCC1 [Compound 15, [1-[5-(2,3-Difluoro-phenyl)-pyrimidin-2-yl]-spiro[1,2-dihydro-indole-3,1′-cyclopropane]-6-yl]-morpholin-4-yl-methanone]	< 0.1 µM
COc1ccc(C(N)=O)c(-c2cnc(N3CC4(CC4)c4ccc(C(=O)N5CCOCC5)cc43)nc2)c1 [Compound 113, 4-Methoxy-2-[2-[6-(morpholine-4-carbonyl)-spiro[1,2-dihydro-indole-3,1′-cyclopropane]-1-yl]-pyrimidin-5-yl]-benzamide]	0.1 to 1 µM
[1-[5-(2-Fluorophenyl)-pyrimidin-2-yl]-spiro[1,2-dihydro-pyrrolo[2,3-b]pyridine-3,1′-cyclobutane]-6-yl]-morpholin-4-yl-methanone [Compound 171]	0.1 to 1 µM
[1-[5-(1-Cyclopropyl-phenyl)-pyrimidin-2-yl]-spiro[1,2-dihydro-indole-3,1′-cyclopropane]-6-yl]-piperazin-1-yl-methanone [Compound 70]	0.1 to 1 µM
COc1ccc(F)c(-c2cnc(N3CC4(CC4)c4ccc(C(=O)N5CCNCC5)cc43)nc2)c1 [Compound 73, [1-[5-(2-Fluoro-5-methoxy-phenyl)-pyrimidin-2-yl]-spiro[1,2-dihydro-indole-3,1′-cyclopropane]-6-yl]-piperazin-1-yl-methanone]	< 0.1 µM
O=C(c1ccc2c(n1)N(c1ncc(-c3ccccc3F)cn1)CC21CC1)N1CCOCC1 [Compound 170, [1-[5-(2-Fluorophenyl)-pyrimidin-2-yl]-spiro[1,2-dihydro-pyrrolo[2,3-b]pyridine-3,1′-cyclopropane]-6-yl]-morpholin-4-yl-methanone]	< 0.1 µM
CN(C)c1ccnc(-c2cnc(N3CC4(CC4)c4ccc(C(=O)N5CCOCC5)cc43)nc2)c1 [Compound 208, [1-[5-(4-Dimethylamino-pyridin-2-yl)-pyrimidin-2-yl]-spiro[1,2-dihydro-indole-3,1′-cyclopropane]-6-yl]-morpholin-4-yl-methanone]	< 0.1 µM
O=C(c1ccc2c(c1)N(c1ncc(-c3ccccc3)cn1)CC21CC1)N1CCOCC1 [Compound 7, Morpholin-4-yl-[1-(5-phenyl-pyrimidin-2-yl)-spiro[1,2-dihydro-indole-3,1′-cyclopropane]-6-yl]-methanone]	< 0.1 µM
O=C(c1ccc2c(c1)N(c1ncc(-c3cc(OC(F)(F)F)ccc3F)cn1)CC21CC1)N1CCOCC1 [Compound 67, [1-[5-(2-Fluoro-5-(trifluoromethyloxy)-phenyl]-pyrimidin-2-yl]-spiro[1,2-dihydro-indole-3,1′-cyclopropane]-6-yl]-morpholin-4-yl-methanone]	0.1 to 1 µM
